Measurements reported in patent US11518788B2, “Methods and compositions for treating and preventing viral infection” (priority 2020, dated 2022).

System: SARS-CoV-2 variant D614G
Type: cell-based

ACE2-Fc
inhibition of infection by SARS-CoV-2 variant D614G: inhibited infection
